# According to publication PMC2998338 (Neuropharmacology, 2010):
# Values joined by “and” are separate entries in the source; they are usually repeats but may differ in a detail not shown here. Equal entries are not always repeated. Where two headings read alike, the source gives them in different places.
# Key:
# male ICR mice [1] = assay: Tail-flick test, compound alone; assay type: in vivo; details: for ED50 Tail-flick, percent effect at the individual dose: tested 15 min after injection; for change of tail-flick latencies by the compound itself: highest dose tested
# male ICR mice [2] = assay: Hot-plate test, compound alone; assay type: in vivo; details: tested 15 min after injection
# rat α7 nAChRs = rat α7 nAChRs (Rattus norvegicus, UniProt Q05941); details: for α7 nH: Hill coefficient, mean
# α7 nAChRs = α7 nAChRs (Rattus norvegicus, UniProt Q05941); assay: [125I]IodoMLA binding assay, rat cerebral cortex; details: read-out: Ki, [125I]MLA binding sites, 70 pM [125I]iodoMLA
# male ICR mice [3] = assay: Hot-plate test, antagonism of nicotine-induced antinociception; assay type: in vivo; details: at 10 mg/kg s.c., 15 min before nicotine
# male ICR mice [4] = assay: Body temperature, antagonism of nicotine-induced hypothermia; assay type: in vivo; details: for AD50 Body temperature, percent effect at the individual dose: 15 min before nicotine, tested 30 min after nicotine; for block of nicotine-induced hypothermia: mice
# rat α3β4 nAChRs = rat α3β4 nAChRs (Rattus norvegicus, UniProt P04757+P12392); details: for α3β4 nH: Hill coefficient, mean
# [5] = target: human α4β2 neuronal nAChRs (Homo sapiens, UniProt P17787+P43681); details: for α4β2 nH: Hill coefficient, mean
# neuronal nAChRs = assay: Whole-cell patch-clamp, time course of inhibition; assay type: cell-based; details: co-application with ACh following pre-exposure
# male ICR mice [6] = assay: Body temperature; assay type: in vivo
# male ICR mice [7] = assay: Tail-flick test, antagonism of nicotine-induced antinociception; assay type: in vivo; details: s.c., 15 min before nicotine 2.5 mg/kg, tested 5 min after nicotine; (confidence limits)
# NMDA receptors = details: read-out: IC50, NMDA receptors; ref MacDonald et al., 1990; Morris et al., 2005; cited from earlier work
# [8] = holding potential −100 to +60 mV, n=3
# Sequence of rat α7 nAChRs (Q05941 23-502): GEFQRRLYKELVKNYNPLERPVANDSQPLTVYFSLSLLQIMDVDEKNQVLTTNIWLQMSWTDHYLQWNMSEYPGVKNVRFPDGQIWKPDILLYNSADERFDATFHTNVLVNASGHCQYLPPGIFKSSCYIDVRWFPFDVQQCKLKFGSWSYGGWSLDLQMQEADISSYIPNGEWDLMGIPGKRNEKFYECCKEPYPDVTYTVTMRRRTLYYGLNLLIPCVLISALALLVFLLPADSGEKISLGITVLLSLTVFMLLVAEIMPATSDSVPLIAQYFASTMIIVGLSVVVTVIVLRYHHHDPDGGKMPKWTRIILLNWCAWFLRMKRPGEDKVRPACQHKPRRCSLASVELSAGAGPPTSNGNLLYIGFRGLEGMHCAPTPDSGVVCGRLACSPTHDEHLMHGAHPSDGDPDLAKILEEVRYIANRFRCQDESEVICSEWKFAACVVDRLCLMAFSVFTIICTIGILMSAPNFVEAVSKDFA
# Sequence of human α4β2 neuronal nAChRs (P43681 29-627 limits assumed): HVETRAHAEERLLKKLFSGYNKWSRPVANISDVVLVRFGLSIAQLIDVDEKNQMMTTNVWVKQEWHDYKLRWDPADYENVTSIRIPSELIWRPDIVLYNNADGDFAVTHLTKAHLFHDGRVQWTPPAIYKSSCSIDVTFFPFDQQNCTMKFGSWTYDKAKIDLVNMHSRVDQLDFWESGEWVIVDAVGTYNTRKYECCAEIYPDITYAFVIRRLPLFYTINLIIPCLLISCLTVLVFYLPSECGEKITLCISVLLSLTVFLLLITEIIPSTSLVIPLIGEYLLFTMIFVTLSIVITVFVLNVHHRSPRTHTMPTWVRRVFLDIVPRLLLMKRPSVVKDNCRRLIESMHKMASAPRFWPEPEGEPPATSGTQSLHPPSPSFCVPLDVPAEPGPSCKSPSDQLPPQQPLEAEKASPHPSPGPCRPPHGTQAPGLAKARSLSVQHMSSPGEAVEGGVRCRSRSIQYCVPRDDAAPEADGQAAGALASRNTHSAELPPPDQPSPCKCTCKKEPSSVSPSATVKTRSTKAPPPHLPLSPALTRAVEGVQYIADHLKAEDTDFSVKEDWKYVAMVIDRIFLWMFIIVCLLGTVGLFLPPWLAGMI
# Sequence of human α4β2 neuronal nAChRs (P17787 26-502): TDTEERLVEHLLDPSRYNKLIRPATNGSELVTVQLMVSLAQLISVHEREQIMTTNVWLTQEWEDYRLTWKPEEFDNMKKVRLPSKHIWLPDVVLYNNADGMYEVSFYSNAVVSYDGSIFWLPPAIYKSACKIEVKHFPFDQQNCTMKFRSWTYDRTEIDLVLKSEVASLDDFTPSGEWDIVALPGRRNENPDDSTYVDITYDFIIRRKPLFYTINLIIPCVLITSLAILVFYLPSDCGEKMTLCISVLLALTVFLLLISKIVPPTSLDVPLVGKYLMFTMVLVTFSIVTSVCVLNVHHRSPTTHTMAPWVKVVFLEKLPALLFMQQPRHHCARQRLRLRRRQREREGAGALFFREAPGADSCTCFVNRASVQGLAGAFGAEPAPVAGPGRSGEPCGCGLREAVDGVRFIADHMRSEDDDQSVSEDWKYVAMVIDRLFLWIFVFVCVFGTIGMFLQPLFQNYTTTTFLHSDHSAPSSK
# Sequence of rat α3β4 nAChRs (P04757 26-499): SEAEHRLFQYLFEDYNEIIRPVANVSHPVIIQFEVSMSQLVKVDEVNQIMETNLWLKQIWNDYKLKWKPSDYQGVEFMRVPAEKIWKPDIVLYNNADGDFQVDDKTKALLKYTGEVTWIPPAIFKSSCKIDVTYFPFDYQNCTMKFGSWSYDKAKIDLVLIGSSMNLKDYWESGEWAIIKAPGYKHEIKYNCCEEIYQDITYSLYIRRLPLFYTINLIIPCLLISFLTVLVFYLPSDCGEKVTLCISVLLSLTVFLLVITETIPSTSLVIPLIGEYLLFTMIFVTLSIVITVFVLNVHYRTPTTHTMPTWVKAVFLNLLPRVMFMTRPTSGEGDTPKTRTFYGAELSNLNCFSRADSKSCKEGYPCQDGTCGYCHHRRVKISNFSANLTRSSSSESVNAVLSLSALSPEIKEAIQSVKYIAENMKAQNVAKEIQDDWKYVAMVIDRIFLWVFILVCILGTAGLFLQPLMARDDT
# Sequence of rat α3β4 nAChRs (P12392 21-495): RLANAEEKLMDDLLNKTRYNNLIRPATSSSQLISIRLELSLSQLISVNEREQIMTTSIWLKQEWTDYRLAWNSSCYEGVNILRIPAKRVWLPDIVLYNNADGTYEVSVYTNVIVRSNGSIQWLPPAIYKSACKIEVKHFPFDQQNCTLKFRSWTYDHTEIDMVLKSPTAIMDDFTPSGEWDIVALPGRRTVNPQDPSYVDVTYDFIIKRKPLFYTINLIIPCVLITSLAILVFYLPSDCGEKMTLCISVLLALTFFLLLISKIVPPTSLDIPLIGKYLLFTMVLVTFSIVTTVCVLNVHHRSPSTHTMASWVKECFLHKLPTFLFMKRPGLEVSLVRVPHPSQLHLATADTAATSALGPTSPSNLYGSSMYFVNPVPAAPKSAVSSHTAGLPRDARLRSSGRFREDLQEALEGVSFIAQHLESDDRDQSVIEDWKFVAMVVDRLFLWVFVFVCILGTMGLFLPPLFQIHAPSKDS
# Sequence of α7 nAChRs (Q05941 23-502): as the sequence (Q05941 23-502) above
smiles,measurement,setting,value
"CN(C)c1ccc2c(c1)CC1CC(Cc3ccccc3)N(C)C21 (stereo not drawn) [HDMP, 1,2,3,3a,4,8b-hexahydro-2-benzyl-6-N,N-dimethylamino-1-methylindeno[1,2,-b]pyrrole]","ED50 Tail-flick, percent effect at the individual dose",male ICR mice [1]; at 10 mg/kg s.c.,2%@10
same,change of tail-flick latencies by the compound itself,male ICR mice [1],did not significantly change
same,"ED50 Hot-Plate, percent effect at the individual dose",male ICR mice [2]; at 10 mg/kg s.c.,8%@10
same,"inhibition of whole-cell currents, α7","rat α7 nAChRs; 0.1 μM, −80 mV, example cell",55%
same,α7 nH,rat α7 nAChRs,0.73
same,fold more potent than PCP in inhibition of α7 nAChRs,rat α7 nAChRs; based on IC50 values 1.25 and 0.07 μM,18 fold
same,"voltage-dependence of inhibitory effect, α7",rat α7 nAChRs; [8],voltage-independent
same,fold more potent at α7 than at α3β4 nAChRs,rat α7 nAChRs; ratio of patch-clamp IC50s,414 fold
same,fold more potent at α7 than at α4β2 nAChRs,rat α7 nAChRs; ratio of patch-clamp IC50s,357 fold
same,Ki,α7 nAChRs,> 10 µM
same,"AD50 Hot-Plate, percent effect (inhibition) at the individual dose",male ICR mice [3],20%@10
same,"AD50 Body temperature, percent effect at the individual dose",male ICR mice [4]; at 10 mg/kg s.c.,0%@10
same,block of nicotine-induced hypothermia,male ICR mice [4],failed to block
same,"effect on whole-cell currents, α3β4","rat α3β4 nAChRs; 0.1 μM, −80 mV, example cell",no effect
same,α3β4 nH,rat α3β4 nAChRs,1.06
same,fold less potent than PCP in inhibition of α3β4 nAChR function,rat α3β4 nAChRs; based on IC50s 28.98 and 6.35 μM,4.6 fold
same,"voltage-dependence of inhibitory effect, α3β4",rat α3β4 nAChRs; [8],voltage-independent
same,IC50,rat α3β4 nAChRs; read-out: α3β4 IC50,29 µM
same,"effect on whole-cell currents, α4β2","[5]; 0.1 μM, −80 mV, example cell",no effect
same,α4β2 nH,[5],1.15
same,"voltage-dependence of inhibitory effect, α4β2",[5]; [8],voltage-independent
same,IC50,[5]; read-out: α4β2 IC50,25.1 µM
same,time in which the inhibitory effect develops,neuronal nAChRs,40 to 60 s
same,"ED50 Hypothermia, percent effect at the individual dose",male ICR mice [6]; at 10 mg/kg s.c.,0%@10
same,AD50 Tail-flick,male ICR mice [7],0.008 (0.004–0.015) mg/kg
"c1ccc(C2(N3CCCCC3)CCCCC2)cc1 [PCP, phencyclidine, reference compound]","ED50 Tail-flick, percent effect at the individual dose",male ICR mice [1]; at 5 mg/kg s.c.,6%@5
same,change of tail-flick latencies by the compound itself,male ICR mice [1],did not significantly change
same,"ED50 Hot-Plate, percent effect at the individual dose",male ICR mice [2]; at 5 mg/kg s.c.,5%@5
same,α7 nH,rat α7 nAChRs,0.97
same,fold more potent at α7 than at α4β2 nAChRs,rat α7 nAChRs; ratio of patch-clamp IC50s,23 fold
same,"AD50 Body temperature, percent effect at the individual dose",male ICR mice [4]; at 5 mg/kg s.c.,0%@5
same,block of nicotine-induced hypothermia,male ICR mice [4],failed to block
same,α3β4 nH,rat α3β4 nAChRs,0.65
same,IC50,rat α3β4 nAChRs; α3β4 IC50,6.4 µM and 6.35 µM
same,IC50,NMDA receptors,~1 µM
same,α4β2 nH,[5],1.4
same,IC50,[5]; α4β2 IC50,29 µM
same,"ED50 Hypothermia, percent effect at the individual dose",male ICR mice [6]; at 5 mg/kg s.c.,5%@5
same,AD50 Tail-flick,male ICR mice [7],1.1 (0.87–1.30) mg/kg
